Counter-ions that a name gives are not always drawn.
Q: With `O=C(C=CC=Cc1cccnc1)NCCCCC1CCN(C(c2ccccc2)c2ccccc2)CC1` [Substance 132, N-[4-(1-Diphenylmethylpiperidine-4-yl)-butyl]-5-(pyridin-3-yl)-2,4-pentadienoic Acid Amide] as the compound, how does the melting point read?
A: Its melting point is 164 to 166 °C.

Q: With `O=C(C=Cc1cccnc1)NCCC1CCN(C(c2ccccc2)c2ccccc2)CC1` [Substance 95, N-[2-(1-Diphenylmethylpiperidin-4-yl)-ethyl]-3-(pyridin-3-yl)-acrylamide] as the compound, how does the melting point read?
A: Its melting point is 141 to 143 °C.

Q: With `O=C(CCc1cccnc1)NCCCCCC1CCN(C(c2ccccc2)c2ccccc2)CC1` [Substance 142, N-[5-(1-Diphenylmethylpiperidin-4-yl)-pentyl]-3-(pyridin-3-yl)-propionamide] as the compound, how does the melting point read?
A: Its melting point is 112 to 114 °C.

Q: With `O=C(C=Cc1cccnc1)NCCCCC1CCN(Cc2ccccc2)CC1` [Substance 46, N-[4-(1-Benzylpiperidin-4-yl)-butyl]-3-(pyridin-3-yl)-acrylamide] as the compound, how does the melting point read?
A: Its melting point is 88 to 90 °C.

Q: For `O=C(C=Cc1cccnc1)NCCCCC1CCN(C(c2ccc(F)cc2)c2ccc(F)cc2)CC1` [Substance 171, N-(4-{1-[bis-(4-Fluorophenyl)-methyl]-piperidin-4-yl}-butyl)-3-(pyridin-3-yl)-acrylamide], which melting point is on record?
A: Its melting point is 108 °C.

Q: Which melting point does the source give for `CCN(CCCCC1CCN(C(c2ccccc2)c2ccccc2)CC1)C(=O)/C=C/c1cccnc1` [Substance 123, N-[4-(1-Diphenylmethylpiperidin-4-yl)-butyl]-N-ethyl-3-(pyridin-3-yl)-acrylamide] here?
A: The melting point was 115 to 117 °C.

Q: For `O=C(COc1cccnc1)NCCCCC1CCN(C(c2ccccc2)c2ccccc2)CC1` [Substance 129, N-[4-(1-Diphenylmethylpiperidin-4-yl)-butyl]-2-(pyridin-3-yloxy)-acetamide], which melting point is on record?
A: Its melting point is 103 to 105 °C.

Q: For `O=C(C=Cc1cccnc1)NCCCCC1CCN(C(=O)c2cccc3c2-c2ccccc2C3=O)CC1` [Substance 277, N-{4-[1-(9-oxo-9H-Fluorene-4-carbonyl)-piperidine-4-yl]-butyl}-3-(pyridin-3-yl)-acrylamide], which melting point is on record?
A: Its melting point is 80 to 82 °C.

Q: For `Cl.Cl.O=C(C=Cc1cccnc1)NCCCCC1CCNCC1`, which melting point is on record?
A: Its melting point is 178 to 188 °C.

Q: Which melting point does the source give for `O=C(C=Cc1cccnc1)NCCCCC1CCN(C(c2ccccc2)c2ccccc2)CC1` (as salt: methanesulfonate) [Substance 104, N-[4-(1-Diphenylmethylpiperidin-4-yl)-butyl]-3-(pyridin-3-yl)-acrylamide] here?
A: Its melting point is 156 °C.

Q: With `O=C(C=Cc1cccnc1)NCC1CN(C(c2ccccc2)c2ccccc2)C1` [Substance 2, N-(1-Diphenylmethylazetidin-3-ylmethyl)-3-(pyridin-3-yl)-acrylamide] as the compound, how does the melting point read?
A: The melting point was 72 to 74 °C.

Q: Which melting point does the source give for `O=C(CCc1cccnc1)NCCCCC1CCN(S(=O)(=O)c2ccc3ccccc3c2)CC1` [Substance 337, N-{4-[1-(2-Naphthylsulfonyl)-piperidin-4-yl]-butyl}-3-(pyridin-3-yl)-propionamide] here?
A: The melting point was 103 to 105 °C.

Q: With `O=C(CCc1cccnc1)NCCCC1CCN(C(c2ccccc2)c2ccccc2)CC1` [Substance 96, N-[3-(1-Diphenylmethylpiperidin-4-yl)-propyl]-3-(pyridin-3-yl)-propionamide] as the compound, how does the melting point read?
A: The melting point was 109 to 110 °C.

Q: For `O=C(C=Cc1cccnc1)NCCCOC1CCN(Cc2ccccc2)CC1` [Substance 55, N-[3-(1-Benzylpiperidine-4-yloxy)-propyl]-3-(pyridin-3-yl)-acrylamide], which melting point is on record?
A: Its melting point is 100 to 102 °C.

Q: With `O=C(CCc1cccnc1)NCCCCC1CCN(C2c3ccccc3COc3ccccc32)CC1` (stereo not drawn) [Substance 230, N-{4-[1-(6,11-Dihydrodibenzo[b,e]-oxepin-11-yl)-piperidine-4-yl]-butyl}-3-(pyridin-3-yl)-propionamide] as the compound, how does the melting point read?
A: Its melting point is 110 to 112 °C.

— patent publication US6451816B1, “Use of pyridyl alkane, pyridyl alkene and/or pyridyl alkine acid amides in the treatment of tumors or for immunosuppression” (Klinge Pharma GmbH, priority 1997, dated 2002)
